# Measurements taken from patent US20230226041A1, “COMPOUNDS FOR THE TREATMENT OF VIRAL INFECTIONS” (Merck Patent GmbH, priority 2020, published 2023).
# Where two headings read alike, the source gives them in different places.
# Test system: SARS-CoV2/ZG/297-20
# Type: cell-based
# Settings: Calu-3 cells infected with SARS-CoV-2, MOI 0.05, observed for 120 hours, level about equal to uninfected cells
SMILES,"confluence of Calu-3 cells as compared to the infected cells (concentrations between 4 and 27 μM, FIG. 1)","confluence of Calu-3 cells as compared to the infected cells (concentrations between 16 and 81 μM, FIG. 2)"
"COc1cc2ncc3c(c2cc1-c1cn(C)nc1C)n(-c1c(F)cncc1OC)c(=O)n3C (atropisomer, axis not shown; (Sa)) [NCE4, 8-(1,3-dimethyl-1H-pyrazol-4-yl)-1-(Sa)-(3-fluoro-5-methoxy-pyridin-4-yl)-7-methoxy-3-methyl-1,3-dihydro-imidazo[4,5-c]quinolin-2-one]",significant retainment or improvement of the confluence of the cells,–
"COc1cc2ncc3c(c2cc1-c1cnn(C)c1)n(-c1ccc(C#N)cc1F)c(=O)n3C [NCE16, 3-fluoro-4-[7-methoxy-3-methyl-8-(1-methyl-1H-pyrazol-4-yl)-2-oxo-2,3-dihydro-imidazo[4,5-c]quinolin-1-yl]-benzonitrile]",–,significant retainment or improvement of the confluence of the cells
